Values quoted from earlier work in US5565606A, “Synthesis of peptide aminoalkylamides and peptide hydrazides by the solid-phase method” (Hoechst Aktiengesellschaft, priority 1986, dated 1996).
Where two headings read alike, the source gives them in different places.

How the values were obtained:
[1] = system: amnesia induced by electric shock or scopolamine; conditions: s.c. administration, mice; from EP-A 179 332
urge to groom and move = conditions: rats, from EP-A 179 332
[2] = system: choline content in the striatum; conditions: rats, s.c. administration of 10 μg; from EP-A 179 332

For “Met(O)-Glu-His-Phe-D-Lys-Phe-NH-(CH2)8 -NH2”, the “minimum effective dose, weakening of amnesia” value [1] is listed as 0.03 µg/kg.
For “benzyloxycarbonyl-D-Lys-Phe-NH-(CH2)8 -NH2.2HCl”, the “urge to groom and move” value (urge to groom and move; i.c.v. administration of 1 μg) is listed as “the same action”.
For benzyloxycarbonyl-Lys-Phe-OMe, the “choline content in the striatum” value [2] is given as “increased” and the “urge to groom and move” value (urge to groom and move; i.c.v. administration of 10 μg) is given as “cause the urge to groom and move”.
